Legend:
Experiment in all cases: Test B pre-/postemergence plant response
Type in all cases: in vivo
[1] = tested on: morningglory (Ipomoea coccinea)
Method in brief: (§1)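 Greenhouse herbicide screen. Pre- and postemergence (1- to 4-leaf) spray of compound in solvent/surfactant mixture; loam–sand soil for pre, peat/vermiculite medium for post. Visual control rating 0–100 at 13 to 15 days after treatment.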

soybean (Glycine max) = tested on: soybean (Glycine max)
Method in brief: as §1

[2] = tested on: Surinam grass (Brachiaria decumbens)
Method in brief: as §1

[3] = tested on: goosegrass (Eleusine indica)
Method in brief: as §1

[4] = tested on: johnsongrass (Sorghum halepense)
Method in brief: as §1

[5] = tested on: yellow nutsedge (Cyperus esculentus)
Method in brief: as §1

[6] = tested on: velvetleaf (Abutilon theophrasti)
Method in brief: as §1

[7] = tested on: cocklebur (Xanthium strumarium)
Method in brief: as §1

[8] = tested on: blackgrass (Alopecurus myosuroides)
Method in brief: as §1

[9] = tested on: woolly cupgrass (Eriochloa villosa)
Method in brief: as §1

[10] = tested on: giant foxtail (Setaria faberii)
Method in brief: as §1

corn (Zea mays) = tested on: corn (Zea mays)
Method in brief: as §1

[11] = tested on: downy bromegrass (Bromus tectorum)
Method in brief: as §1

[12] = tested on: green foxtail (Setaria viridis)
Method in brief: as §1

[13] = tested on: large crabgrass (Digitaria sanguinalis)
Method in brief: as §1

wild oat (Avena fatua) = tested on: wild oat (Avena fatua)
Method in brief: as §1

kochia (Kochia scoparia) = conditions: Postemergence; for Plant response rating, Kochia: scale 0 (no effect) to 100 (complete control)
Method in brief: as §1

[14] = 250 g ai/ha, Preemergence, 0 to 100 scale
[15] = Postemergence, 62 g ai/ha, scale 0 (no effect) to 100 (complete control), 13 to 15 days
[16] = Postemergence, 125 g ai/ha, visual rating after 13 to 15 days, scale 0 (no effect) to 100 (complete control)
[17] = Preemergence, 31 g ai/ha, scale 0 to 100 (0 no effect, 100 complete control)
[18] = Preemergence, 62 g ai/ha, scale 0 to 100, 0 no effect, 100 complete control
[19] = Preemergence, 125 g ai/ha, 0 to 100 scale
[20] = Postemergence, 250 g ai/ha, scale 0 to 100
[21] = Postemergence, 31 g ai/ha, scale 0 to 100 (0 no effect, 100 complete control)

## Cc1cc(F)ccc1-n1c(-c2ccccc2)ncc(C(=O)C2=C(O)CCCC2=O)c1=O [Compound 48]
[1]; [14]
  Plant response rating, Morningglory: 100
[1]; [15]
  Plant response rating, Morningglory: 70
[1]; [16]
  Plant response rating, Morningglory: 80
[1]; [17]
  Plant response rating, Morningglory: 0
[1]; [18]
  Plant response rating, Morningglory: 100
[1]; [19]
  Morningglory plant response rating: 100
Soybean (Glycine max); [14]
  Plant response rating, Soybean: 20
Soybean (Glycine max); [15]
  Plant response rating, Soybean: 95
Soybean (Glycine max); [16]
  Plant response rating, Soybean: 98
Soybean (Glycine max); [17]
  Plant response rating, Soybean: 0
Soybean (Glycine max); [19]
  Soybean plant response rating: 0
[2]; [14]
  Plant response rating, Surinam Grass: 100
[2]; [15]
  Plant response rating, Surinam Grass: 85
[2]; [16]
  Plant response rating, Surinam Grass: 95
[2]; [17]
  Plant response rating, Surinam Grass: 80
[2]; [19]
  Surinam Grass plant response rating: 100
[3]; [14]
  Plant response rating, Goosegrass: 100
[3]; [15]
  Plant response rating, Goosegrass: 85
[3]; [16]
  Plant response rating, Goosegrass: 95
[3]; [20]
  Goosegrass plant response rating: 98
[3]; [17]
  Plant response rating, Goosegrass: 98
[3]; [19]
  Goosegrass plant response rating: 100
[4]; [14]
  Plant response rating, Johnsongrass: 98
[4]; [15]
  Plant response rating, Johnsongrass: 80
[4]; [16]
  Plant response rating, Johnsongrass: 80
[4]; [20]
  Johnsongrass plant response rating: 95
[4]; [17]
  Plant response rating, Johnsongrass: 20
[4]; [18]
  Plant response rating, Johnsongrass: 45
[4]; [19]
  Johnsongrass plant response rating: 90
[5]; [14]
  Plant response rating, Nutsedge, Yellow: 90
[5]; [15]
  Plant response rating, Nutsedge, Yellow: 45
[5]; [16]
  Plant response rating, Nutsedge, Yellow: 60
[5]; [17]
  Plant response rating, Nutsedge, Yellow: 20
[5]; [19]
  Nutsedge, Yellow plant response rating: 85
[6]; [14]
  Plant response rating, Velvetleaf: 100
[6]; [15]
  Plant response rating, Velvetleaf: 85
[6]; [16]
  Plant response rating, Velvetleaf: 98
[6]; [17]
  Plant response rating, Velvetleaf: 75
[6]; [19]
  Velvetleaf plant response rating: 100
[7]; [14]
  Plant response rating, Cocklebur: 85
[7]; [21]
  Plant response rating, Cocklebur: 95
[7]; [15]
  Plant response rating, Cocklebur: 95
[7]; [16]
  Plant response rating, Cocklebur: 98
[7]; [20]
  Cocklebur plant response rating: 98
[7]; [18]
  Plant response rating, Cocklebur: 0
[7]; [19]
  Cocklebur plant response rating: 0
[8]; [14]
  Plant response rating, Blackgrass: 5
[8]; [21]
  Plant response rating, Blackgrass: 0
[8]; [15]
  Plant response rating, Blackgrass: 5
[8]; [16]
  Plant response rating, Blackgrass: 20
[8]; [20]
  Blackgrass plant response rating: 30
[8]; [17]
  Plant response rating, Blackgrass: 0
[8]; [18]
  Plant response rating, Blackgrass: 0
[8]; [19]
  Blackgrass plant response rating: 0
[9]; [14]
  Plant response rating, Cupgrass, Woolly: 95
[9]; [21]
  Plant response rating, Cupgrass, Woolly: 80
[9]; [15]
  Plant response rating, Cupgrass, Woolly: 80
[9]; [16]
  Plant response rating, Cupgrass, Woolly: 90
[9]; [20]
  Cupgrass, Woolly plant response rating: 95
[9]; [17]
  Plant response rating, Cupgrass, Woolly: 10
[9]; [18]
  Plant response rating, Cupgrass, Woolly: 10
[9]; [19]
  Cupgrass, Woolly plant response rating: 75
[10]; [14]
  Plant response rating, Foxtail, Giant: 98
[10]; [21]
  Plant response rating, Foxtail, Giant: 85
[10]; [15]
  Plant response rating, Foxtail, Giant: 85
[10]; [16]
  Plant response rating, Foxtail, Giant: 95
[10]; [20]
  Foxtail, Giant plant response rating: 98
[10]; [17]
  Plant response rating, Foxtail, Giant: 20
[10]; [18]
  Plant response rating, Foxtail, Giant: 75
[10]; [19]
  Foxtail, Giant plant response rating: 85
Corn (Zea mays); [14]
  Plant response rating, Corn: 0
Corn (Zea mays); [21]
  Plant response rating, Corn: 65
Corn (Zea mays); [15]
  Plant response rating, Corn: 70
Corn (Zea mays); [16]
  Plant response rating, Corn: 85
Corn (Zea mays); [20]
  Corn plant response rating: 85
Corn (Zea mays); [17]
  Plant response rating, Corn: 0
Corn (Zea mays); [18]
  Plant response rating, Corn: 0
Corn (Zea mays); [19]
  Corn plant response rating: 0
[11]; [14]
  Plant response rating, Bromegrass, Downy: 45
[11]; [21]
  Plant response rating, Bromegrass, Downy: 10
[11]; [15]
  Plant response rating, Bromegrass, Downy: 25
[11]; [16]
  Plant response rating, Bromegrass, Downy: 50
[11]; [20]
  Bromegrass, Downy plant response rating: 70
[11]; [17]
  Plant response rating, Bromegrass, Downy: 0
[11]; [18]
  Plant response rating, Bromegrass, Downy: 0
[11]; [19]
  Bromegrass, Downy plant response rating: 0
[12]; [14]
  Plant response rating, Foxtail, Green: 98
[12]; [21]
  Plant response rating, Foxtail, Green: 85
[12]; [15]
  Plant response rating, Foxtail, Green: 95
[12]; [16]
  Plant response rating, Foxtail, Green: 95
[12]; [20]
  Foxtail, Green plant response rating: 95
[12]; [17]
  Plant response rating, Foxtail, Green: 60
[12]; [18]
  Plant response rating, Foxtail, Green: 60
[12]; [19]
  Foxtail, Green plant response rating: 98
[13]; [14]
  Plant response rating, Crabgrass, Large: 100
[13]; [21]
  Plant response rating, Crabgrass, Large: 85
[13]; [15]
  Plant response rating, Crabgrass, Large: 85
[13]; [16]
  Plant response rating, Crabgrass, Large: 95
[13]; [20]
  Crabgrass, Large plant response rating: 95
[13]; [17]
  Plant response rating, Crabgrass, Large: 75
[13]; [18]
  Plant response rating, Crabgrass, Large: 90
[13]; [19]
  Crabgrass, Large plant response rating: 100
Wild oat (Avena fatua); [14]
  Plant response rating, Oat, Wild: 15
Wild oat (Avena fatua); [15]
  Plant response rating, Oat, Wild: 50
Wild oat (Avena fatua); [16]
  Plant response rating, Oat, Wild: 85
Wild oat (Avena fatua); [17]
  Plant response rating, Oat, Wild: 0
Wild oat (Avena fatua); [19]
  Oat, Wild plant response rating: 0
Kochia (Kochia scoparia); 62 g ai/ha, 13 to 15 days
  Plant response rating, Kochia: 98
Kochia (Kochia scoparia); 125 g ai/ha, visual rating after 13 to 15 days
  Plant response rating, Kochia: 100
Kochia (Kochia scoparia); 250 g ai/ha, scale 0 to 100
  Kochia plant response rating: 100

From patent US8952024B2, “Herbicidal pyrimidone derivatives” (E I du Pont de Nemours and Company, priority 2009, dated 2015)
